In series [1] the target is T1, recombinant S3H (Arabidopsis thaliana, UniProt Q9ZSA8).
T1 construct: His (N); made in house; host or cells: E. coli BL21 (DE3, pLys3)
T1 sequence (Q9ZSA8 1-349): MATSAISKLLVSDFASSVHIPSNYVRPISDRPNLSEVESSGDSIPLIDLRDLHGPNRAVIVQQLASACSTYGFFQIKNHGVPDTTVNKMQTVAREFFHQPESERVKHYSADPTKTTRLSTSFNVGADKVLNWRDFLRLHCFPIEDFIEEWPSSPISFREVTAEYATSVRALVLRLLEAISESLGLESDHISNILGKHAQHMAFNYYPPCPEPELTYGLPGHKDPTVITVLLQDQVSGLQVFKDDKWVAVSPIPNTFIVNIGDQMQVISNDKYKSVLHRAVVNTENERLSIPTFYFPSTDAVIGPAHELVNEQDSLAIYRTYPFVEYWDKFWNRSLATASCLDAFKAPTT
Put plainly: Enzyme assay of recombinant S3H (substrate specificity and kinetics). It is filed as biochemical. The note with it: for S3H enzyme activity on substrate (in words): 30-min reaction under the same conditions as those for SA. How it is done: (§1) The construct pET28a-S3H was introduced into E. coli BL21 (DE3, pLys3, Invitrogen, Carlsbad, Calif.). The bacterial cells containing pET28a-S3H were induced with 0.5 mM isopropyl β-D-1-thiogalactoside (IPTG) for 24 hr at 18° C., and were collected and disrupted by sonication in lysis buffer (20 mM Tris-Cl, pH7.5, 2 mM EDTA, 2 mM β-mercaptoethanol, 1 mM PMSF, 10 mM Imidazole, 0.1% Triton X-100, 20 mM sodium ascorbate). All subsequent purification procedures involving His-Bind® resin were performed at 4° C. according to the manufacturer (Novagen, Madison, Wis.). The recombinant protein concentration was quantified using Quick Start Bradford Dye Reagent (Biorad, Hercules, Calif.). 2 mM DTT was added to the enzyme solution and the protein was immediately kept in a −80° C. refrigerator.
(§2) The enzyme assay was performed using a method modified from Satio et al. (Saito et al., “Direct Evidence for Anthocyanidin Synthase as a 2-Oxoglutarate-Dependent Oxygenase: Molecular Cloning and Functional Expression of cDNA From a Red Forma of Perilla frutescens,” Plant J. 17(2):181-189 (1999), which is hereby incorporated by reference in its entirety). The reaction mixture (100 μl) contained 5 mM DTT, 4 mM sodium ascorbate, 1 mM 2-oxoglutaric acid, 0.4 mM FeSO4, 0.1 mg/ml catalase, 50 mM Tris-Cl pH8.0 or other buffer, 8-15 μg recombinant protein, various concentrations of SA. To determine the optimal temperature and pH for enzyme activity of S3H, the protein was incubated with 200 μM SA substrate in Tris-Cl buffer (pH8.0) at different temperatures for 15 min; or 500 μM SA substrate, in 50 mM Sodium citrate, Tris-Cl and Glycine buffers with different pH at 40° C. for 15 min. For enzyme kinetics analysis, various substrate SA concentrations ranging from 10 to 500 μM were used and the incubation proceeded for 6 min with pH 6.0. […] Mass spectra were recorded over 15 to 800 m/z in the negative mode. Km and Vmax were determined by Graphpad Prism 5 software using non-linear regression for Michaelis-Menten equation.

Series [2] relates to S3H. Put plainly: SA treatment of plants, RNA gel blot analysis of S3H expression. The note with it: 5 mM SA spray, Col-0 plants 25 DAG, 6 hours. It is filed as in vivo, Arabidopsis thaliana. The protocol: All chemicals used in this research were purchased from Sigma-Aldrich (St. Louis, Mo.), unless otherwise stated. Col-0 plants (25 DAG) were sprayed with 5 mM SA in 0.005% Silwet L-77 (Lehele Seeds, Tex.) or only 0.005% Silwet L-77 (mock). All rosette leaves of individual plants for RNA extraction were collected at different time points after the spray.
Total RNA extraction and RNA blot analysis were performed as described previously (He & Gan, “A Gene Encoding an Acyl Hydrolase Is Involved in Leaf Senescence in Arabidopsis,” Plant Cell 14(4):805-815 (2002), which is hereby incorporated by reference in its entirety). The DNA templates for probe labeling were amplified by the following different pairs of primers: S3H, G2956 and G2957; AtNAP, G3149 and G3150; SAG12, G10 and G246; SAG13, G9 and G16; EDS1, EDS1F and EDS1R; PAD4, PAD4F and PAD4R; PR1, PR1F and PR1R (FIG. 1E). The ethidium bromide staining of the RNA gels was used to show approximate amount of total RNA loading on each lane.

The test system of series [3] is S3H. To be noted: 10 μM, Col-0 (Seedling), 3 hrs; cited from earlier work.
Substrate in series [4]: O=C(O)c1ccccc1O
Put plainly: Enzyme assay of recombinant S3H (substrate specificity and kinetics). The class given is biochemical, Arabidopsis thaliana. To be noted: other: pH 6.0 and 40° C. for 6 min, mean ± SE of four replicates. How it is done:
as §1, §2

Turning to `Nc1ccccc1C(=O)O` [Anthranilic acid], the “S3H enzyme activity on substrate (in words)” value in series [1] is given as “did not have detectable activity”.
Regarding `O=C(O)c1ccccc1O` [Salicylic acid], in series [1] (pH 6.0 and 40° C. for 30 min, mean ± SE of three replicates, n.d. = not detectable), the Specific activity came out at 78.06 ± 9.75 nmol/mg/min. Further, in series [2], the “S3H expression after SA treatment (RNA gel blot)” value was “readily inducible”. Also, the “Induction folds of S3H” value in series [3] was 36.72.
In the case of `O=C(O)c1ccccc1` [Benzoic acid], the “S3H enzyme activity on substrate (in words)” value in series [1] is on record as “did not have detectable activity”.

B1: recombinant S3H (Arabidopsis thaliana) (protein)
chain: MATSAISKLLVSDFASSVHIPSNYVRPISDRPNLSEVESSGDSIPLIDLRDLHGPNRAVIVQQLASACSTYGFFQIKNHGVPDTTVNKMQTVAREFFHQPESERVKHYSADPTKTTRLSTSFNVGADKVLNWRDFLRLHCFPIEDFIEEWPSSPISFREVTAEYATSVRALVLRLLEAISESLGLESDHISNILGKHAQHMAFNYYPPCPEPELTYGLPGHKDPTVITVLLQDQVSGLQVFKDDKWVAVSPIPNTFIVNIGDQMQVISNDKYKSVLHRAVVNTENERLSIPTFYFPSTDAVIGPAHELVNEQDSLAIYRTYPFVEYWDKFWNRSLATASCLDAFKAPTT
notes: His (N); made in house; host or cells: E. coli BL21 (DE3, pLys3)
Take B1: in series [4], the Km stood at 58.29 µM, the maximal velocity (Vmax) worked out at 0.498 µmol/min/mg and the kcat/Km was 6090 M⁻¹ s⁻¹.

The values above are taken from patent US9873889B2, “Increasing leaf longevity and disease resistance by altering salicylic acid catabolism” (priority 2013, dated 2018).
